How the values were obtained:
Assay in all cases: radiometric filter-binding kinase assay, Kinase HotSpot
Settings in all cases: compound 0.5 µM; ATP 10 µM
WEE1 (human) = WEE1 (human) (UniProt P30291)
PAK1 (human) = PAK1 (human) (UniProt Q13153)
ALK (human) = ALK (human) (UniProt Q9UM73)
WNK3 (human) = WNK3 (human) (UniProt Q9BYP7)
MAPKAPK5 (human) = MAPKAPK5 (human) (UniProt Q8IW41)
HIPK4 (human) = HIPK4 (human) (UniProt Q8NE63)
CAMK4 (human) = CAMK4 (human) (UniProt Q16566)
PRKCB2 (human) = PRKCB2 (human) (UniProt P05771)
CDC42BPB (human) = CDC42BPB (human) (UniProt Q9Y5S2)
PAK6 (human) = PAK6 (human) (UniProt Q9NQU5)
SGK2 (human) = SGK2 (human) (UniProt Q9HBY8)
MAP3K11 (human) = MAP3K11 (human) (UniProt Q16584)
RET (human) = RET (human) (UniProt P07949)
MARK1 (human) = MARK1 (human) (UniProt Q9P0L2)
RPS6KA5 KD2 (human) = RPS6KA5 KD2 (human) (UniProt O75582)
PAK3 (human) = PAK3 (human) (UniProt O75914)
MKNK2 (human) = MKNK2 (human) (UniProt Q9HBH9)
NTRK2 (human) = NTRK2 (human) (UniProt Q16620)
VRK1 (human) = VRK1 (human) (UniProt Q99986)
HIPK2 (human) = HIPK2 (human) (UniProt Q9H2X6)
ZAP70 (human) = ZAP70 (human) (UniProt P43403)
ADRBK2 (human) = ADRBK2 (human) (UniProt P35626)
IGF1R (human) = IGF1R (human) (UniProt P08069)
CAMKK1 (human) = CAMKK1 (human) (UniProt Q8N5S9)
MYLK2 (human) = MYLK2 (human) (UniProt Q9H1R3)
CDK2 CCNA2 (human) = CDK2 CCNA2 (human) (UniProt P24941+P20248)
TXK (human) = TXK (human) (UniProt P42681)
ROCK2 (human) = ROCK2 (human) (UniProt O75116)
PRKCZ (human) = PRKCZ (human) (UniProt Q05513)
BRSK1 (human) = BRSK1 (human) (UniProt Q8TDC3)
EPHA4 (human) = EPHA4 (human) (UniProt P54764)
MELK (human) = MELK (human) (UniProt Q14680)
MAP3K3 (human) = MAP3K3 (human) (UniProt Q99759)
NEK11 (human) = NEK11 (human) (UniProt Q8NG66)
MARK4 (human) = MARK4 (human) (UniProt Q96L34)
MAPK9 (human) = MAPK9 (human) (UniProt P45984)
STK11 (human) = STK11 (human) (UniProt Q15831)
PHKG1 (human) = PHKG1 (human) (UniProt Q16816)
DAPK3 (human) = DAPK3 (human) (UniProt O43293)
PRKCE (human) = PRKCE (human) (UniProt Q02156)
STK24 (human) = STK24 (human) (UniProt Q9Y6E0)
MET (human) = MET (human) (UniProt P08581)

Sequence of MAPK9 (human) (P45984 whole entry, looked up): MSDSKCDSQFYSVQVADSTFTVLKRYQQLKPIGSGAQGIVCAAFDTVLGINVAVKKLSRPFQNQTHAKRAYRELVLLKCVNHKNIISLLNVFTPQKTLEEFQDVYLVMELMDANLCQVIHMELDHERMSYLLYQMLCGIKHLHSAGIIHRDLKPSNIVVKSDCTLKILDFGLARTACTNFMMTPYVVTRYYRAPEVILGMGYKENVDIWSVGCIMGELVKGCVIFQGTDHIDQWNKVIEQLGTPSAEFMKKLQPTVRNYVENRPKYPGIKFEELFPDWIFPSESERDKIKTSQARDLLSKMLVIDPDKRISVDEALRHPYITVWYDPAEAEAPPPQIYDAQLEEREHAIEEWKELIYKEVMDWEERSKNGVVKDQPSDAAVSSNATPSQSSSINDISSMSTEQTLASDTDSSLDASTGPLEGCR
Sequence of MARK1 (human) (Q9P0L2 whole entry, looked up): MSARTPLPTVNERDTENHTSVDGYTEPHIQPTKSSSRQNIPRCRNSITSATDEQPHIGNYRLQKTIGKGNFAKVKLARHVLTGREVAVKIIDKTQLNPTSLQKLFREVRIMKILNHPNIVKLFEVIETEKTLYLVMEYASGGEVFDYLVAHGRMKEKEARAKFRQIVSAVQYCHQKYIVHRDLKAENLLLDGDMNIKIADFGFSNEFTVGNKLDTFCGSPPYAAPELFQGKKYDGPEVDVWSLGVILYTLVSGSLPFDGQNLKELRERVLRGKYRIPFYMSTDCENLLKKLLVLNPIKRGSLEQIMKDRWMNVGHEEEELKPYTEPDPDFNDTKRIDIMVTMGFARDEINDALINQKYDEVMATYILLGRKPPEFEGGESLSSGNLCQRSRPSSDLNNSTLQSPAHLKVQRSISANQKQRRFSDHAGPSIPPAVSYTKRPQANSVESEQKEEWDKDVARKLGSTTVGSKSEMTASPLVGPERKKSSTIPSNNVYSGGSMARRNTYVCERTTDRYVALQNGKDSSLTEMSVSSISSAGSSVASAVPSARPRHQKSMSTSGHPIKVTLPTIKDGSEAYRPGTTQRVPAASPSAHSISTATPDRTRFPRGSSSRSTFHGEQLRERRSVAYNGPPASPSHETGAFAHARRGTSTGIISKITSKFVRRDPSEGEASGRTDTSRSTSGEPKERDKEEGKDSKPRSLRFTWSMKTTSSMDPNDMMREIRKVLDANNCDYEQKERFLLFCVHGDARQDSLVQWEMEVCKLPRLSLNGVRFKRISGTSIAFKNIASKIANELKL
Sequence of ALK (human) (Q9UM73 whole entry, looked up): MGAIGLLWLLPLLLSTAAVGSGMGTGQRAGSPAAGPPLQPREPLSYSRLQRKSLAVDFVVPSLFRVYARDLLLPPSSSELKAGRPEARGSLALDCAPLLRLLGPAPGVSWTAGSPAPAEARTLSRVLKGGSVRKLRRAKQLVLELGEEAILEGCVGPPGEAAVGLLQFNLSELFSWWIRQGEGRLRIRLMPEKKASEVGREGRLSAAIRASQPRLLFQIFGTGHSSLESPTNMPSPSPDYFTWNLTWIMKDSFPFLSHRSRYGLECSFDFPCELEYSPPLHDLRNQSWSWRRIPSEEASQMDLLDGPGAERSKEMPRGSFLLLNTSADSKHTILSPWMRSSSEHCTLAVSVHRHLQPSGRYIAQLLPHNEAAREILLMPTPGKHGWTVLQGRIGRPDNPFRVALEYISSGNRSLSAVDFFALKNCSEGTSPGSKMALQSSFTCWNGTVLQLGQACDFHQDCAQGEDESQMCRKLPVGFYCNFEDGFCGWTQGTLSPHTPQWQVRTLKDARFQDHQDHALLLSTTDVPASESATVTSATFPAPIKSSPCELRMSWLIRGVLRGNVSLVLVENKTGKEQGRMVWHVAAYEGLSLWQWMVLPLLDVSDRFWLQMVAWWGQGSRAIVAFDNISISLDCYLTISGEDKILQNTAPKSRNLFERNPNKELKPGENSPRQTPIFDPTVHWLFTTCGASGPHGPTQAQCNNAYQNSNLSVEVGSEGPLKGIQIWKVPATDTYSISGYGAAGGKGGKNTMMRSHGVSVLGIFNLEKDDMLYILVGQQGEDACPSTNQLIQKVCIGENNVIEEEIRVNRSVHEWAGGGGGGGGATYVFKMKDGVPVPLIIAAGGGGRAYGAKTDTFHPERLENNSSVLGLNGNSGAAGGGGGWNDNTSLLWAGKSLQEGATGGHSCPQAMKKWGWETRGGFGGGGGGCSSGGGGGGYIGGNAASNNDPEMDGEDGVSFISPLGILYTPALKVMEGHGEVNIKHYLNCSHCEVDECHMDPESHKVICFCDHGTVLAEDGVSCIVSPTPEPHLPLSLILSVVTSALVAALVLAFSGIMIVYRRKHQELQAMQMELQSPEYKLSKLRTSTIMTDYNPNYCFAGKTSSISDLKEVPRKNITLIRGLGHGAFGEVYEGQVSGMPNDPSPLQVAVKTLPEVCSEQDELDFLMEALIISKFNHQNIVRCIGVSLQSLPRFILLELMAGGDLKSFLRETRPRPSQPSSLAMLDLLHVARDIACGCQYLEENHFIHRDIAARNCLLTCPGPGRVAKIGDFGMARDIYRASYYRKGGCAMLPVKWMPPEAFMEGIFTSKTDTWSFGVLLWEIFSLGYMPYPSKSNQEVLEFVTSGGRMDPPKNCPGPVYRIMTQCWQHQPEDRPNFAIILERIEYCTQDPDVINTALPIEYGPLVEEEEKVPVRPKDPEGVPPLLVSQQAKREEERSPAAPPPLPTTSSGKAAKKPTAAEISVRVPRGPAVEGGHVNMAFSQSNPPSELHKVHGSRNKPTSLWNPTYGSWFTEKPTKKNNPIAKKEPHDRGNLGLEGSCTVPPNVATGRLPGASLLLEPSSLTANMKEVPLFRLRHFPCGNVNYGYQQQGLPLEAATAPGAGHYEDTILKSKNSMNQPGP
Sequence of TXK (human) (P42681 whole entry, looked up): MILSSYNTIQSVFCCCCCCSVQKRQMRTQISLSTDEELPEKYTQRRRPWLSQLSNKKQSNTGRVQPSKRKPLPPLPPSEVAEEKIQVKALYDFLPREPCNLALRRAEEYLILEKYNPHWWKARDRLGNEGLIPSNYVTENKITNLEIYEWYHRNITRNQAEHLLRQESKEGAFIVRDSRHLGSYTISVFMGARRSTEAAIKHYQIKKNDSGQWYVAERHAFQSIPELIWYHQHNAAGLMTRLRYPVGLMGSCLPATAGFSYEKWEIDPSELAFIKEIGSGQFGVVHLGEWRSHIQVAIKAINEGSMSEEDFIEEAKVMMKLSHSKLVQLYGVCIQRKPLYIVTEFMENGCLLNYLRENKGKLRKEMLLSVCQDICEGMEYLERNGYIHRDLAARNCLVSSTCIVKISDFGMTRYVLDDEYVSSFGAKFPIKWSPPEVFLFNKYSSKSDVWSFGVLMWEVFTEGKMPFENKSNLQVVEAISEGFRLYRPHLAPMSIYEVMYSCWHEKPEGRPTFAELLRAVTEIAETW
Sequence of CAMKK1 (human) (Q8N5S9 whole entry, looked up): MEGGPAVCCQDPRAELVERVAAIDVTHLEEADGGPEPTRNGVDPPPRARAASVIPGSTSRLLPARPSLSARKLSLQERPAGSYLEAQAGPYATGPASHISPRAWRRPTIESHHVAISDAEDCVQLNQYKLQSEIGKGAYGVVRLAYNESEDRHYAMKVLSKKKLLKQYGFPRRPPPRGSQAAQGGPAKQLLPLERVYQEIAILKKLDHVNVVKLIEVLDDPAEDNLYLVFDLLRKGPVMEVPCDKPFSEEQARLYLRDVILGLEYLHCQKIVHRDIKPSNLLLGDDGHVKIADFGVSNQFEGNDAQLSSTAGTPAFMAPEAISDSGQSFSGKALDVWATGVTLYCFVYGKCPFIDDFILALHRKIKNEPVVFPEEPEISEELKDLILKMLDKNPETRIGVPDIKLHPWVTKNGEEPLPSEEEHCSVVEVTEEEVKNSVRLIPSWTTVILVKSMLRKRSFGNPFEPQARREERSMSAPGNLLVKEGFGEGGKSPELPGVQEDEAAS
Sequence of CAMK4 (human) (Q16566 whole entry, looked up): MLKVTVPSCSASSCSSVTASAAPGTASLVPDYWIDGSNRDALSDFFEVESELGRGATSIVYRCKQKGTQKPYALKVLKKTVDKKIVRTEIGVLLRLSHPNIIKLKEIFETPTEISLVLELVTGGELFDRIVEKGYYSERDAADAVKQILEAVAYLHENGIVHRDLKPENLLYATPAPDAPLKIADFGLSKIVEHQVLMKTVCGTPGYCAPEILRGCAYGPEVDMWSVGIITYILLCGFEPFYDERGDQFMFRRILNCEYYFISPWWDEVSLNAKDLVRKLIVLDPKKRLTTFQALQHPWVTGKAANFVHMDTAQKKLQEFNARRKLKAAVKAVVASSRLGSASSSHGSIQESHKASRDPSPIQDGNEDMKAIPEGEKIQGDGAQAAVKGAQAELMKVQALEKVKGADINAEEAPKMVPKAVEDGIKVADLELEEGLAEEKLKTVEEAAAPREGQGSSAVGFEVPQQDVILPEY
Sequence of MYLK2 (human) (Q9H1R3 whole entry, looked up): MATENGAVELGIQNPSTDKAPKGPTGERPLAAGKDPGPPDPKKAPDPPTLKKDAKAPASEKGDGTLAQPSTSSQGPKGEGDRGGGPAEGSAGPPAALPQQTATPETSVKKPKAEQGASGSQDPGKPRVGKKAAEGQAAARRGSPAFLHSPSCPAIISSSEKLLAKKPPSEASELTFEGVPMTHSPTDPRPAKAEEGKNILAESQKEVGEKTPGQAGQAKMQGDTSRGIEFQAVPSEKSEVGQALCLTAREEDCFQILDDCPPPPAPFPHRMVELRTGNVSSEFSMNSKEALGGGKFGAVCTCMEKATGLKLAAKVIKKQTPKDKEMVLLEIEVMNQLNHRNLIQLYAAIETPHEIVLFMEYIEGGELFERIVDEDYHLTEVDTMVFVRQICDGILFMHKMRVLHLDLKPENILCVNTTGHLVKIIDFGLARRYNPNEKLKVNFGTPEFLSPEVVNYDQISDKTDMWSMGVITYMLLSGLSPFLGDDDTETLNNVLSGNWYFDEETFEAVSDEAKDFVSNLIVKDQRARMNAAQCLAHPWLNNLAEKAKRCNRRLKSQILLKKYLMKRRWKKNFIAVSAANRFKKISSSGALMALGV

NC(=O)c1ccc(N(C(N)=O)c2c(F)cccc2F)nc1-c1ccc(F)cc1F
residual activity (WEE1 (human)): 101% | residual activity (PAK1 (human)): 110% | residual activity (ALK (human)): 99.6% | residual activity (WNK3 (human)): 96.6% | residual activity (MAPKAPK5 (human)): 93.4% | residual activity (HIPK4 (human)): 90.5% | residual activity (CAMK4 (human)): 91.9% | residual activity (PRKCB2 (human)): 94.6% | residual activity (CDC42BPB (human)): 96.5% | residual activity (PAK6 (human)): 103% | residual activity (SGK2 (human)): 107% | residual activity (MAP3K11 (human)): 105% | residual activity (RET (human)): 93.1% | residual activity (MARK1 (human)): 132% | residual activity (RPS6KA5 KD2 (human)): 92.8% | residual activity (PAK3 (human)): 98.3% | residual activity (MKNK2 (human)): 101% | residual activity (NTRK2 (human)): 102% | residual activity (VRK1 (human)): 104% | residual activity (HIPK2 (human)): 100% | residual activity (ZAP70 (human)): 100% | residual activity (ADRBK2 (human)): 98.1% | residual activity (IGF1R (human)): 92.3% | residual activity (CAMKK1 (human)): 98.9% | residual activity (MYLK2 (human)): 101% | residual activity (CDK2 CCNA2 (human)): 87.8% | residual activity (TXK (human)): 104% | residual activity (ROCK2 (human)): 97.7% | residual activity (PRKCZ (human)): 89.9% | residual activity (BRSK1 (human)): 94.2% | residual activity (EPHA4 (human)): 105% | residual activity (MELK (human)): 87.1% | residual activity (MAP3K3 (human)): 118% | residual activity (NEK11 (human)): 92.9% | residual activity (MARK4 (human)): 102% | residual activity (MAPK9 (human)): 93.5% | residual activity (STK11 (human)): 99.5% | residual activity (PHKG1 (human)): 92% | residual activity (DAPK3 (human)): 107% | residual activity (PRKCE (human)): 101% | residual activity (STK24 (human)): 105% | residual activity (MET (human)): 89.4%

O=c1cc(-c2cccc3c2Sc2ccccc2S3)oc(N2CCOCC2)c1
residual activity (WEE1 (human)): 98.3% | residual activity (PAK1 (human)): 92.3% | residual activity (ALK (human)): 96.2% | residual activity (WNK3 (human)): 109% | residual activity (MAPKAPK5 (human)): 94.5% | residual activity (HIPK4 (human)): 100% | residual activity (CAMK4 (human)): 94% | residual activity (PRKCB2 (human)): 105% | residual activity (CDC42BPB (human)): 103% | residual activity (PAK6 (human)): 95.6% | residual activity (SGK2 (human)): 115% | residual activity (MAP3K11 (human)): 98.6% | residual activity (RET (human)): 82.4% | residual activity (MARK1 (human)): 100% | residual activity (RPS6KA5 KD2 (human)): 117% | residual activity (PAK3 (human)): 95% | residual activity (MKNK2 (human)): 117% | residual activity (NTRK2 (human)): 99.1% | residual activity (VRK1 (human)): 90.7% | residual activity (HIPK2 (human)): 105% | residual activity (ZAP70 (human)): 97.1% | residual activity (ADRBK2 (human)): 100% | residual activity (IGF1R (human)): 98.2% | residual activity (CAMKK1 (human)): 112% | residual activity (MYLK2 (human)): 97.4% | residual activity (CDK2 CCNA2 (human)): 101% | residual activity (TXK (human)): 106% | residual activity (ROCK2 (human)): 109% | residual activity (PRKCZ (human)): 102% | residual activity (BRSK1 (human)): 98.2% | residual activity (EPHA4 (human)): 101% | residual activity (MELK (human)): 99.9% | residual activity (MAP3K3 (human)): 137% | residual activity (NEK11 (human)): 88.5% | residual activity (MARK4 (human)): 100% | residual activity (MAPK9 (human)): 97.7% | residual activity (STK11 (human)): 96.5% | residual activity (PHKG1 (human)): 106% | residual activity (DAPK3 (human)): 106% | residual activity (PRKCE (human)): 109% | residual activity (STK24 (human)): 97.8% | residual activity (MET (human)): 107%

From the kinase profiling compilation of Christmann-Franck et al. (2016)
